In patent US9446019B2, “Sparstolonin B based pharmaceutical agent for neuroblastoma treatment” (University of South Carolina, priority 2013, dated 2016):

Key:
[1] = system: SK-N-BE(2) and SH-SY5Y cells; experiment: Two layer soft agarose colony formation assay; assay type: cell-based, human; conditions: SsnB 10 μM, 45 days
Procedure: A two layer soft agarose assay system was used in these studies. Approximately 1×10^4 cells were suspended in 0.35% agarose in DMEM with 10% FBS, and were gently laid on the bottom agarose layer containing 0.8% agarose with DMEM+10% FBS in 35 mm^2 cell culture dishes. Once solidified, the dishes were incubated at 37° C. in a humidified chamber with 5% CO2. Next day, 500 μl of complete cell culture medium with respective concentrations of SsnB was added, and cells were allowed to grow for 45 days in an incubator chamber. Fresh medium with respective concentrations of SsnB was added to the dishes in every 5 days. Cells treated with equal volume of DMSO were used as control. At the end of experiments, cells were stained with 0.1% crystal violet and cell colonies (more than 15 cells per colony) were counted under the light microscope.
The anti-proliferative activity of SsnB to affects the tumor progression property of neuroblastoma cells was tested by performing two layer agarose gel colony formation assays. Agarose gel colony formation assay is an anchorage-independent in vitro cell transformation assay, and mimics the process of in vivo carcinogenesis. Neuroblastoma cells (N-myc amplified cell, SK-N-BE(2), and N-myc nonamplified cell, SH-SY5Y) were grown in agarose in presence or absence of SsnB (1 μM and 10 μM) and after 45 days the number of colonies was counted.

SH-SY5Y tumors = assay type: in vivo
Procedure: Six-week-old female homozygous athymic nude mice (nu/nu; strain-Crl:NU-Foxn1nu) were purchased from Charles River Laboratories (Wilmington, Mass.), and housed in the University of South Carolina Animal Research Facility. All animal experiments were carried out in compliance with the National Institute of Health (NIH) guidelines and were approved by the Institutional Animal Care and Use Committee (IACUC) of the University of South Carolina. The animals were maintained at 25° C. with a 12-h light/12-h dark cycle in laminar flow cabinets under specific pathogen-free conditions and given sterile water and food ad libitum.
A neuroblastoma xenograft mice model using SH-SY5Y cells was used. To develop localized subcutaneous tumors, 2×10^7 SH-SY5Y cells were mixed 1:1 with matrigel (BD biosciences, San Jose, Calif.) to make 0.1 ml total volume, and cells were injected subcutaneously into the flank region of mice using sterile 27-gauge needle. The animal weight and general appearance were recorded regularly throughout the experiments. On every third day, tumor size was measured with calipers and tumor volume was calculated using the ellipsoid formula (length×width×height×0.5).
Tumor-bearing mice were divided into two groups—(i) control without SsnB treatment, n=4; and (ii) experimental with SsnB treatment (10 mg/kg body weight per mice), n=4. […]
Paraformaldehyde-fixed paraffin-embedded tumor sections (5 μm thick) were deparaffinized in xylene and rehydrated with sequential immersion in graded ethanol (100%, 95%, 85%, 70% and 50%). […] Primary antibodies were detected with secondary antibodies conjugated with fluorescein isothiocyanate (FITC) (1:4000 dilution in 5% IgG-free BSA/PBS) for 2 h at room temperature. After washing with 1×PBS for 4 times (10 min for each washing), sections were mounted with antifade Vectashield mounting media (Vector Laboratories, Burlingame, Calif.), and signals were visualized under Nikon-E600 fluorescence microscope (Nikon, Tokyo, Japan). […]

[2] = system: reactive oxygen species in neuroblastoma cells; experiment: ROS generation, H2DCFDA fluorometry assay; assay type: cell-based, human
Procedure: The production of reactive oxygen species (ROS) in SsnB-treated neuroblastoma cells was detected by a cell-permeable fluorescence probe H2DCFDA (carboxy-2′,7′-dichlorodihydrofluorescein diacetate) according to the manufacturer's instructions (Invitrogen, Carlsbad, Calif.). Briefly, neuroblastoma cells were cultured in DMEM with 10% FBS in Lab-TekII chamber slides (Fisher Scientific, Pittsburg, Pa.) and treated with SsnB for 2 days (SH-SY5Y and IMR-32 cells), 3 days (NGP cell) or 4 days (SKNF-1 and SK-N-BE(2) cells). After treatments, cells were washed with Hank's buffered salt solution (HBSS; Thermo Scientific, Waltham, Mass.) and incubated with 25 μM of carboxy-H2DCFDA dye for 30 min at 37° C. in dark. Nuclei were counterstained with DAPI. Cells were washed three times with HBSS, mounted with Vectashield mounting medium (Vector Laboratories), and immediately examined under Nikon-E600 fluorescence microscopy equipped with fluorescein isothiocyanate (FITC) filter. Oxidation of H2DCFDA probe occurs almost exclusively in the cytosol, and generates a fluorescence that is proportional to ROS generation in that cell. As a negative control, cells without H2DCFDA dye were used to detect autofluorescence. The fluorometric analysis to detect generation of ROS was performed. Briefly, after treatments with SsnB as mentioned above, cells were labeled with carboxy-H2DCFDA dye (25 μM) for 30 min at 37° C. Cells were trypsinized, washed, and re-suspended in PBS and fluorescence intensity was monitored at excitation wavelength 485 nm and emission wavelength 530 nm with a spectramax spectrophotometer (Molecular Devices, Sunnyvale, Calif.).
SsnB-induced generation of ROS was also evaluated by fluorometry assay. Neuroblastoma cells as treated above were incubated with H2DCFDA dye for 30 min and the fluorescence intensity was measured at 485 nm (excitation wavelength) and 530 nm (emission wavelength).

O=c1occ2c3c(ccc(O)c13)Oc1ccc(O)cc1-2 [SsnB, 8,5′-dihydroxy-4-phenyl-5,2′-oxidoisocoumarin]
size of colonies ([1]; vs control and SsnB 1 μM): significantly smaller
colony formation capability (number of colonies) ([1]; p<0.05 vs control): significantly inhibited the colony formation capability
average tumor volume (SH-SY5Y tumors; 10 mg/kg body weight daily intraperitoneal, 15 days, control 883.75±68.23 mm^3): 146.5±14.08 mm^3
cleaved caspase-3 signals in tumors (SH-SY5Y tumors; 10 mg/kg, immunohistochemistry, p<0.05 vs control): significantly detected
TUNEL positive cells in tumors (SH-SY5Y tumors; 10 mg/kg, p<0.05 vs control): increased the number of TUNEL positive cells
H2DCFDA fluorescence intensity vs DMSO ([2]; SsnB 1 μM, nonsignificant): almost similar
H2DCFDA fluorescence intensity vs DMSO ([2]; SsnB 10 μM, p<0.05): significantly increased
